This assay has as its target T1, Na+/I− symporter (NIS) (Rattus norvegicus, UniProt Q63008).
T1 sequence (Q63008 1-618): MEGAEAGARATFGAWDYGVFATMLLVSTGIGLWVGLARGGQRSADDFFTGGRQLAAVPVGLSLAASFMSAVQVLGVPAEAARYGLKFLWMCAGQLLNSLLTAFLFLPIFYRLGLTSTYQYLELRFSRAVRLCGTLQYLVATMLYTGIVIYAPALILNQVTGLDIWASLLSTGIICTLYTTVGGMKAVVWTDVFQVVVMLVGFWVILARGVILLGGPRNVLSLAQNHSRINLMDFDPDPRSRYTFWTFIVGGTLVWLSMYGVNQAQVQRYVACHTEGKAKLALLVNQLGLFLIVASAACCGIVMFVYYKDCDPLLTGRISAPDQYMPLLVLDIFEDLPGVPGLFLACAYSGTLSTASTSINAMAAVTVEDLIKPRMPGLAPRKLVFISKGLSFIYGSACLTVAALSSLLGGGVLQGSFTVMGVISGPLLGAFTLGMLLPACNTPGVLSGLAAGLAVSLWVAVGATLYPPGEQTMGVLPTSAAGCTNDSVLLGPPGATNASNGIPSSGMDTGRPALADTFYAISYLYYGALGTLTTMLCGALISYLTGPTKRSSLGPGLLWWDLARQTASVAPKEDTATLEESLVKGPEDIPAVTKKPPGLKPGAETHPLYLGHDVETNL
The assay can be described thus: inhibition of NIS-mediated […] radioiodide uptake. The format is cell-based.

Consider `[O-][Cl+3]([O-])([O-])O` [perchlorate], for which the midpoint of inhibition, the IC50, lay at 3 µM.

For the origin of these results see paper PMC3736852 (Endocrine-related cancer, 2012).
